Results published in patent US20250282797A1, “CRYSTALLINE FORM OF FGFR4 INHIBITOR AND USE THEREOF” (CSPC ZHONGQI PHARMACEUTICAL TECHNOLOGY (SHIJIAZHUANG) CO., …, priority 2022, published 2025).

Tests used:
[1] = Pharmacokinetic study in rats; format: in vivo, SD rats; settings: rat
From the text: Test Example 6: Pharmacokinetic Study of Compound of Formula B in Rats
Assay drug: the compound of formula B obtained in Preparation Example 1.
Instrument: LC-MS/MS-13 (TQ5500, Triple quad), with the operation software of Xcalibur2.0.7 (Thermo Fisher Scientific, USA); LC-10ADvp liquid chromatography system (Shimadzu, Japan); Shimadzu LC-20AD liquid chromatography pump; Shimadzu CBM-20A system controller; Shimadzu CTO-20A column oven; and SIL-20AC autosampler (Shimadzu, Japan). Chromatographic column: Agilent Zorbax SB-CN 3.5 u 100×2.1 mm; column temperature: 40° C.; mobile phase A: 0.1% aqueous formic acid solution; mobile phase B: a 0.1% solution of formic acid in acetonitrile; flow rate: 0.60 mL/min. The gradient elution was performed as follows: from 0 to 0.5 min, the mobile phase B was increased from 1% to 90%; from 0.5 to 1.2 min, 90% of the mobile phase B was maintained; starting from 1.21 min, the mobile phase B was changed back to 1%; and elution was stopped at 1.60 min.
Animals: 6 male SD rats were supplied by Shanghai Sippe-Bk Lab Animal Co., Ltd. The body weight range was 180-220 g. After purchase, the rats were bred in the laboratory of the experimental animal center for 2 days for later use. The rats were fasted 10-14 h before administration and 4 h after administration, and given ad libitum access to water during the assay. The rats were randomly divided into two groups, with 3 rats in each group. One group was intravenously injected, and the other group was intragastrically administered.
Preparation of intragastric administration solution: the compound of formula B (4.85 mg) was precisely weighed out, and a mixed aqueous solution (9.70 mL) containing 0.5% methylcellulose and 0.4% Tween-80 was added, followed by sonication at room temperature to prepare a 0.5 mg/mL suspension. Preparation of intravenous injection solution: the compound of formula B (2.79 mg) was precisely weighed out, and DMSO (21 μL), PEG200 (2.79 mL), and normal saline (4.164 mL) were added to prepare a 0.4 mg/mL solution.
Blood was collected in the intragastric administration group about 0.25 h before administration and 0.25 h, 0.5 h, 1 h, 1.5 h, 2 h, 4 h, 6 h, 8 h, 12 h, and 24 h after administration. Blood was collected in the intravenous administration group about 0.25 h before administration and 0.083 h, 0.25 h, 0.5 h, 0.75 h, 1 h, 2 h, 4 h, 8 h, 12 h, and 24 h after administration. The blood was collected from the jugular vein or other venipuncture at 0.25 mL/time point and anticoagulated with EDTA-K2 or EDTA-K3. The collected blood was placed on the ice. After the blood samples were collected, plasma was separated by centrifugation (centrifugation conditions: 6800 g/min, 6 min, 2-8° C.). The collected plasma samples were stored in a refrigerator at −80° C. for testing prior to analysis.
The compound of the formula B was accurately weighed out and formulated into different concentrations, and quantitative analysis was performed on a mass spectrometer to establish a standard curve. The concentration of the compound of formula B in the plasma described above was then measured to obtain the concentrations of the compound of formula B at different time points. All the measured data were collected and processed by relevant software, and pharmacokinetic parameters (mainly including kinetic parameters Tmax, T1/2, Cmax, AUC0-t, etc.) were calculated by adopting a statistical moment method. […]

FGFR4 = FGFR4 (Homo sapiens, UniProt P22455); experiment: FGFR4 kinase activity inhibition assay (Caliper mobility shift); format: biochemical
Description: 1. FGFR4 Kinase Activity Inhibition Assay
The FGFR4 protein kinase activity was determined by using the Caliper mobility shift assay technology. The compound was dissolved in DMSO and then diluted with a kinase buffer, and 5 μL of the compound (10% DMSO) at a 5-fold final reaction concentration was added to a 384-well plate. 10 μL of a 2.5-fold enzyme (FGFR4) solution was added, and then the mixture was incubated at room temperature for 10 min. 10 μL of a 2.5-fold substrate (FAM-labeled peptide and ATP) solution was added. The mixture was incubated at 28° C. for 30-60 min, and then 25 μL of a terminating solution was added to terminate the reaction. Conversion rate data were read on Caliper EZ Reader II (Caliper Life Sciences). The conversion rate was converted into inhibition data date (% inhibition rate=(max−sample conversion rate)/(max−min)×100), wherein max referred to the conversion rate of the DMSO control, and min referred to the conversion rate of the enzyme-free control. The concentration and inhibition rate of the compound were used as the abscissa and ordinate to plot the curve, and the XLFit Excel Add-in version 4.3.1 software was used to fit the curve and calculate the IC50 value.

Huh7 cell = experiment: Inhibition assay on Huh-7 tumor cell proliferation (CTG); format: cell-based; settings: Homo sapiens, 72 h or 168 h drug treatment
Description: 2. Inhibition Assay of Compound on Huh-7 Tumor Cell Proliferation
An Huh7 cell suspension was adjusted to 5×10e4 cells/mL or 2×10e4 cells/mL with DMEM+2 mM Glutamine+10% FBS medium. The cell suspension (100 μL) was added to each well of a 96-well cell culture plate at a final cell concentration of 5000 cells/well (72 h) or 2000 cells/well (168 h). The test compound was dissolved in DMSO as a 10 mmol stock solution. Compounds at 200× final concentration were prepared using the stock solution and DMSO, and 3×serial dilutions were prepared and diluted 20-fold with the medium. Finally, 10 μL of the corresponding 10-fold solution was added to each well of each cell strain, a single well for each drug concentration. […] After 72 h or 168 h of drug treatment, 100 μL of a CTG solution which was pre-melted and equilibrated to room temperature was added to each well according to CTG operation instructions, and the solution was mixed well using a microplate shaker for 2 min, left to stand at room temperature for 10 min, and measured for chemiluminescence signal values using an EnSpire plate reader. The cell survival rate was calculated using the following formula: (Vsample−Vblank)/(Vvehicle control−Vblank)×100%, wherein Vsample was the reading of the drug treatment group, Vvehicle control was the average value of the solvent control group, and Vblank was the average value of the blank control well. […]

[2] = male, SD, plasma, iv, intravenously injected, 2.0 mg/kg
[3] = male, SD, plasma, po, intragastrically administered, 5 mg/kg

FGFR4, sequence (P22455 22-802): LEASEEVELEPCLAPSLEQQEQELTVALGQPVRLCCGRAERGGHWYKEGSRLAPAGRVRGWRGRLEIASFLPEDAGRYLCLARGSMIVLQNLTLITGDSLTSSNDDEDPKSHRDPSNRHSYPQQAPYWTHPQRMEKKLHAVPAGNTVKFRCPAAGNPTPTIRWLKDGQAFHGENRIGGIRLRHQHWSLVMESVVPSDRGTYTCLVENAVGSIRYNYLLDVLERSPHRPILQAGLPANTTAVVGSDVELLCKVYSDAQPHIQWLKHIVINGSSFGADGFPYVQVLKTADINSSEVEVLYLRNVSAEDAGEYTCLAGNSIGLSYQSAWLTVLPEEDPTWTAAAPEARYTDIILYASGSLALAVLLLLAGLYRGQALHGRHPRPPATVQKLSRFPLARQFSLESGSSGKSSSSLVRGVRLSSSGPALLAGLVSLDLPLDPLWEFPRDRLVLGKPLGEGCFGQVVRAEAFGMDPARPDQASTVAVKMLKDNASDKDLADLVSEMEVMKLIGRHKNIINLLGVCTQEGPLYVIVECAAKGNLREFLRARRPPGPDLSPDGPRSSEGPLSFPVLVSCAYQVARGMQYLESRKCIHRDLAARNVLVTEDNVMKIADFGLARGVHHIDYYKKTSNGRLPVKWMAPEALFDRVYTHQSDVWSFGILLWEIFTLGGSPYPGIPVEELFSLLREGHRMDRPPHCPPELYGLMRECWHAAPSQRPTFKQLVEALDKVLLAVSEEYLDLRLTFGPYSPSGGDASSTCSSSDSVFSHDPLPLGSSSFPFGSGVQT

- AUC(0-t) [1, 2]: 3980 ng·h/mL
- clearance [1, 2]: 8.63 mL/min/kg
- half-life [1, 2]: 1.88 h
- bioavailability ([1]; male, SD, plasma, oral, intragastric 5 mg/kg vs intravenous 2.0 mg/kg, read-out: absolute bioavailability): 48.6%
- AUC(0-t) [1, 3]: 4840 ng·h/mL
- Cmax [1, 3]: 1220 ng/mL
- half-life [1, 3]: 1.95 h
- Tmax ([1]; male, SD, plasma, po, intragastrically administered, 5 mg/kg, read-out: time at which the plasma concentration reached the peak value (Tmax)): 2.67 h
- volume distribution ([1]; intravenously injected, 2.0 mg/kg): 0.883 L/kg
- IC50 (FGFR4): < 5 nM
- IC50 (Huh7 cell): < 10 nM
Structure (SMILES): N#Cc1cnc(NC(=O)N2CCCc3cc(CN4CCN5CCC[C@H]5C4=O)c(C=O)nc32)cc1NC1CC1 [compound of formula B]
